pIC50: −log10 of the molar value.

The term pIC50 denotes the IC50 on a negative log10 scale, so that one unit is a factor of ten.

The target in the experiment is recombinant human Tyro3 (Homo sapiens (Human), UniProt Q06418). The experiment can be described thus: Tyro3 Enzymatic Assay. The note with it: radiometric [32P]-ATP kinase assay, Poly(Glu, Tyr) substrate, 2 nM enzyme. It is filed as biochemical. The protocol:
Poly(Glu, Tyr) sodium salt (Glu:Tyr (4:1), quality level 200, molecular weight 5,000-20,000, obtained from Sigma Aldrich, catalogue #P7244, assay concentration 0.20 mg/mL) and recombinant human Tyro3 (obtained from ThermoFisher Scientific, catalogue #PV3828, assay concentration 2 nM) were mixed in assay buffer (20 mM Hepes pH 7.5, 10 mM MgCl2, […] EGTA, 0.02% Brij35, 0.02 mg/ml BSA, 0.1 mM Na3VO4, 2 mM DTT, 1% DMSO, with added MnCl2 at a final concentration of 2 mM). Compounds of interest (in DMSO, serial 3-fold dilution from 10 μM to 0.5 nM) or control (1% DMSO) were dispensed into the kinase reaction mixture by Acoustic technology (Echo550; nanoliter range). After incubation at room temperature for 20 minutes, the kinase reaction was initiated by addition of [^32P]-ATP (Specific activity 10 μCi/μL) and the mixture was incubated at room temperature for 2 hours. The reaction was then stopped by spotting the reaction mixture on strips of phosphocellulose P81 paper. Following washing, the radioactivity of the P81 paper was measured and kinase activity data were expressed as the percent remaining kinase activity in test samples compared to vehicle (dimethyl sulfoxide) reactions. IC50 values and curve fits were obtained using Prism (GraphPad Software).

Chain of recombinant human Tyro3 (Q06418 41-890): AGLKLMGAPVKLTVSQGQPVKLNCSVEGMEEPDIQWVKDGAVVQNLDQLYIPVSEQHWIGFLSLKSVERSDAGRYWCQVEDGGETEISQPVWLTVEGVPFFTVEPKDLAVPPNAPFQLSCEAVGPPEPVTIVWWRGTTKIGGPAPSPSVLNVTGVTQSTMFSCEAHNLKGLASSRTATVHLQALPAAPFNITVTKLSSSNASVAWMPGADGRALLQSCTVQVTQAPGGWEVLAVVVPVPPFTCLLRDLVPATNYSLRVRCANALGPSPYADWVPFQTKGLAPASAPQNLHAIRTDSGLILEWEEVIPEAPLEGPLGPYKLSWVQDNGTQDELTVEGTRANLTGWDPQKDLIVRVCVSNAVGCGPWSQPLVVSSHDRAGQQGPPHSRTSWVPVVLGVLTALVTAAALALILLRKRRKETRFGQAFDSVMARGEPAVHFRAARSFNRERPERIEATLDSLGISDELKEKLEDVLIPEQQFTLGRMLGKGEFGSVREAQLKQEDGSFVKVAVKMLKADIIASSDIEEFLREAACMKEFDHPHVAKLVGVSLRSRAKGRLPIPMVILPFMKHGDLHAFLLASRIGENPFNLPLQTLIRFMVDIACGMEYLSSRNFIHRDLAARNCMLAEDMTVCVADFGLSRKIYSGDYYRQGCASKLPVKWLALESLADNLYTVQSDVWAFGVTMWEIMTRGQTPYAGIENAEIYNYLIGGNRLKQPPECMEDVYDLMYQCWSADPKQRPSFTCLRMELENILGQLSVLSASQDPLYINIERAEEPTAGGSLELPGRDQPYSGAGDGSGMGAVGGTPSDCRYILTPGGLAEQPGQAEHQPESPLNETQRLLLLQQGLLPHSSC

For the molecule `COc1ccc(-c2c[nH]c3ncc(-c4cnn(C5CCN(C)CC5)c4)cc23)cn1` [Compound 1, 3-(6-methoxypyridin-3-yl)-5-(1-(1-methylpiperidin-4-yl)-1H-pyrazol-4-yl)-1H-pyrrolo[2,3-b]pyridine], the pIC50 is 6.30 to 6.82.

In the case of `COc1ccc(-c2c[nH]c3ncc(-c4cn(C5CCN(C)CC5)nc4OC)cc23)cn1` [Compound 2, 5-(3-methoxy-1-(1-methylpiperidin-4-yl)-1H-pyrazol-4-yl)-3-(6-methoxypyridin-3-yl)-1H-pyrrolo[2,3-b]pyridine], the negative-log IC50 (pIC50) is more than 7.30.

As for `CCOc1nn(C2CCN(C)CC2)cc1-c1cnc2[nH]cc(-c3ccc(OC)nc3)c2c1` [Compound 3, 5-(3-ethoxy-1-(1-methylpiperidin-4-yl)-1H-pyrazol-4-yl)-3-(6-methoxypyridin-3-yl)-1H-pyrrolo[2,3-b]pyridine], the pIC50 was more than 7.30.

As to `COc1ccc(-c2c[nH]c3ncc(-c4cn(C5CCN(C)CC5)nc4F)cc23)cn1` [Compound 4, 5-(3-fluoro-1-(1-methylpiperidin-4-yl)-1H-pyrazol-4-yl)-3-(6-methoxypyridin-3-yl)-1H-pyrrolo[2,3-b]pyridine], the pIC50 is 6.82 to 7.29.

As to `COc1ccc(-c2c[nH]c3ncc(-c4cn(C5CCN(C)CC5)nc4Cl)cc23)cn1` [Compound 5, 5-(3-chloro-1-(1-methylpiperidin-4-yl)-1H-pyrazol-4-yl)-3-(6-methoxypyridin-3-yl)-1H-pyrrolo[2,3-b]pyridine], the pIC50 was more than 7.30.

`COc1ccc(-c2c[nH]c3ncc(-c4ccn(C5CCN(C)CC5)n4)cc23)cn1` [Compound 6, 3-(6-methoxypyridin-3-yl)-5-(1-(1-methylpiperidin-4-yl)-1H-pyrazol-3-yl)-1H-pyrrolo[2,3-b]pyridine]: the pIC50 was less than 6.30.

In the case of `COc1ccc(-c2c[nH]c3ncc(-c4ccnn4C4CCN(C)CC4)cc23)cn1` [Compound 7, 3-(6-methoxypyridin-3-yl)-5-(1-(1-methylpiperidin-4-yl)-1H-pyrazol-5-yl)-1H-pyrrolo[2,3-b]pyridine], the pIC50 was less than 6.30.

Turning to `COc1ccc(-c2c[nH]c3ncc(-c4cn(C5CCN(C)CC5)nc4C)cc23)cn1` [Compound 8, 3-(6-methoxypyridin-3-yl)-5-(3-methyl-1-(1-methylpiperidin-4-yl)-1H-pyrazol-4-yl)-1H-pyrrolo[2,3-b]pyridine], the pIC50 was 6.30 to 6.82.

As to `COc1ccc(-c2c[nH]c3ncc(-c4cnn(C5CCN(C)CC5)c4C)cc23)cn1` [Compound 9, 3-(6-methoxypyridin-3-yl)-5-(5-methyl-1-(1-methylpiperidin-4-yl)-1H-pyrazol-4-yl)-1H-pyrrolo[2,3-b]pyridine], the negative logarithm of the IC50 (pIC50) is less than 6.30.

Consider `COc1nn(C2CCN(C)CC2)cc1-c1cnc2[nH]cc(-c3cccc(F)c3)c2c1` [Compound 10, 3-(3-fluorophenyl)-5-(3-methoxy-1-(1-methylpiperidin-4-yl)-1H-pyrazol-4-yl)-1H-pyrrolo[2,3-b]pyridine], for which the pIC50 is more than 7.30.

For the molecule `CN1CCC(n2cc(-c3cnc4[nH]cc(-c5cccc(F)c5)c4c3)c(Cl)n2)CC1` [Compound 11, 5-(3-chloro-1-(1-methylpiperidin-4-yl)-1H-pyrazol-4-yl)-3-(3-fluorophenyl)-1H-pyrrolo[2,3-b]pyridine], the negative logarithm of the IC50 (pIC50) is more than 7.30.

Consider `COc1nn(C2CCN(C)C2)cc1-c1cnc2[nH]cc(-c3cccc(F)c3)c2c1` (stereo not drawn) [Compound 12, 3-(3-fluorophenyl)-5-(3-methoxy-1-(1-methylpyrrolidin-3-yl)-1H-pyrazol-4-yl)-1H-pyrrolo[2,3-b]pyridine], for which the pIC50 is more than 7.30.

For the molecule `COc1nn(C2CN(C)C2)cc1-c1cnc2[nH]cc(-c3cccc(F)c3)c2c1` [Compound 13, 3-(3-fluorophenyl)-5-(3-methoxy-1-(1-methylazetidin-3-yl)-1H-pyrazol-4-yl)-1H-pyrrolo[2,3-b]pyridine], the pIC50 was more than 7.30.

Turning to `COc1nn(C2CCCN(C)CC2)cc1-c1cnc2[nH]cc(-c3cccc(F)c3)c2c1` (stereo not drawn) [Compound 14, 3-(3-fluorophenyl)-5-(3-methoxy-1-(1-methylazepan-4-yl)-1H-pyrazol-4-yl)-1H-pyrrolo[2,3-b]pyridine], the pIC50 is more than 7.30.

Consider `COc1nn(C2CCCN(C)C2)cc1-c1cnc2[nH]cc(-c3cccc(F)c3)c2c1` (stereo not drawn) [Compound 15, 3-(3-fluorophenyl)-5-(3-methoxy-1-(1-methylpiperidin-3-yl)-1H-pyrazol-4-yl)-1H-pyrrolo[2,3-b]pyridine], for which the pIC50 is 6.30 to 6.82.

As to `COc1nn(C2CCN(C)CC2)cc1-c1cnc2[nH]cc(-c3cccc(C(F)F)c3)c2c1` [Compound 16, 3-(3-(difluoromethyl)phenyl)-5-(3-methoxy-1-(1-methylpiperidin-4-yl)-1H-pyrazol-4-yl)-1H-pyrrolo[2,3-b]pyridine], the pIC50 was more than 7.30.

Take `CN1CCC(n2cc(-c3cnc4[nH]cc(-c5cccc(C(F)F)c5)c4c3)c(F)n2)CC1` [Compound 17, 3-(3-(difluoromethyl)phenyl)-5-(3-fluoro-1-(1-methylpiperidin-4-yl)-1H-pyrazol-4-yl)-1H-pyrrolo[2,3-b]pyridine]: the pIC50 was 6.82 to 7.29.

As for `CN1CCC(n2cc(-c3cnc4[nH]cc(-c5cccc(C(F)F)c5)c4c3)c(Cl)n2)CC1` [Compound 18, 5-(3-chloro-1-(1-methylpiperidin-4-yl)-1H-pyrazol-4-yl)-3-(3-(difluoromethyl)phenyl)-1H-pyrrolo[2,3-b]pyridine], the pIC50 was more than 7.30.

As for `CCOc1nn(C2CCN(C)CC2)cc1-c1cnc2[nH]cc(-c3ccc(C(F)F)nc3)c2c1` [Compound 19, 3-(6-(difluoromethyl)pyridin-3-yl)-5-(3-ethoxy-1-(1-methylpiperidin-4-yl)-1H-pyrazol-4-yl)-1H-pyrrolo[2,3-b]pyridine], the pIC50 was more than 7.30.

As for `COc1nn(C2CCN(C)CC2)cc1-c1cnc2[nH]cc(-c3ccnc(C(F)F)c3)c2c1` [Compound 20, 3-(2-(difluoromethyl)pyridin-4-yl)-5-(3-methoxy-1-(1-methylpiperidin-4-yl)-1H-pyrazol-4-yl)-1H-pyrrolo[2,3-b]pyridine], the pIC50 was more than 7.30.

On to `CCc1[nH]c2ncc(-c3cn(C4CCN(C)CC4)nc3OC)cc2c1-c1ccc(OC)nc1` [Compound 21, 2-ethyl-5-(3-methoxy-1-(1-methylpiperidin-4-yl)-1H-pyrazol-4-yl)-3-(6-methoxypyridin-3-yl)-1H-pyrrolo[2,3-b]pyridine], for which the pIC50 is 6.82 to 7.29.

Take `CCc1[nH]c2ncc(-c3cn(C4CCN(CC)CC4)nc3F)cc2c1-c1ccc(OC)nc1` [Compound 22, 2-ethyl-5-(1-(1-ethylpiperidin-4-yl)-3-fluoro-1H-pyrazol-4-yl)-3-(6-methoxypyridin-3-yl)-1H-pyrrolo[2,3-b]pyridine]: the pIC50 is 6.82 to 7.29.

On to `CCc1[nH]c2ncc(-c3cn(C4CCN(C)CC4)nc3Cl)cc2c1-c1ccc(OC)nc1` [Compound 23, 5-(3-chloro-1-(1-methylpiperidin-4-yl)-1H-pyrazol-4-yl)-2-ethyl-3-(6-methoxypyridin-3-yl)-1H-pyrrolo[2,3-b]pyridine], for which the negative-log IC50 (pIC50) was 6.82 to 7.29.

As to `CCc1[nH]c2ncc(-c3cn(C4CCN(C)CC4)nc3OC)cc2c1-c1cccc(F)c1` [Compound 24, 2-ethyl-3-(3-fluorophenyl)-5-(3-methoxy-1-(1-methylpiperidin-4-yl)-1H-pyrazol-4-yl)-1/-pyrrolo[2,3-b]pyridine], the pIC50 was 6.82 to 7.29.

Turning to `CCc1[nH]c2ncc(-c3cn(C4CCN(C)CC4)nc3F)cc2c1-c1cccc(F)c1` [Compound 25, 2-ethyl-5-(3-fluoro-1-(1-methylpiperidin-4-yl)-1H-pyrazol-4-yl)-3-(3-fluorophenyl)-1H-pyrrolo[2,3-b]pyridine], the pIC50 is 6.82 to 7.29.

Take `CCc1[nH]c2ncc(-c3cn(C4CCN(C)CC4)nc3Cl)cc2c1-c1cccc(F)c1` [Compound 26, 5-(3-chloro-1-(1-methylpiperidin-4-yl)-1H-pyrazol-4-yl)-2-ethyl-3-(3-fluorophenyl)-1H-pyrrolo[2,3-b]pyridine]: the pIC50 is 6.30 to 6.82.

Regarding `CCc1[nH]c2ncc(-c3cn(C4CCN(C)CC4)nc3OC)cc2c1-c1cccc(C(F)F)c1` [Compound 27, 3-(3-(difluoromethyl)phenyl)-2-ethyl-5-(3-methoxy-1-(1-methylpiperidin-4-yl)-1H-pyrazol-4-yl)-1H-pyrrolo[2,3-b]pyridine], the pIC50 is 6.82 to 7.29.

For the molecule `COc1nn(C2CCN(C)CC2)cc1-c1cnc2[nH]c(Cl)c(-c3cccc(F)c3)c2c1` [Compound 28, 2-chloro-3-(3-fluorophenyl)-5-(3-methoxy-1-(1-methylpiperidin-4-yl)-1H-pyrazol-4-yl)-1H-pyrrolo[2,3-b]pyridine], the negative-log IC50 (pIC50) was 6.82 to 7.29.

Consider `COCCN1CCC(n2cc(-c3cnc4[nH]cc(-c5cccc(F)c5)c4c3)c(OC)n2)CC1` [Compound 29, 3-(3-fluorophenyl)-5-(3-methoxy-1-(1-(2-methoxyethyl)piperidin-4-yl)-1H-pyrazol-4-yl)-1H-pyrrolo[2,3-b]pyridine], for which the pIC50 is 6.82 to 7.29.

`COc1nn(C2CCN(C(C)=O)CC2)cc1-c1cnc2[nH]cc(-c3cccc(F)c3)c2c1` [Compound 30, 1-(4-(4-(3-(3-fluorophenyl)-1H-pyrrolo[2,3-b]pyridin-5-yl)-3-methoxy-1H-pyrazol-1-yl)piperidin-1-yl)ethan-1-one]: the pIC50 is less than 6.30.

These data come from patent US20250019378A1, “PYRROLE[2,3-B]PYRIDINE DERIVATIVES AS TYRO3 INHIBITORS” (HALIA THERAPEUTICS, INC., priority 2021, published 2025).
